Measured values taken from paper PMC6557200, “Correction: First-in-human phase 1 study of the BTK inhibitor GDC-0853 in relapsed or refractory B-cell NHL and CLL” (Oncotarget, 2019).
Like-named read-outs stand apart in the source and are kept apart here.

Experiment: First-in-human phase 1 study: pharmacokinetics parameters of GDC-0853 (plasma) on day 1 and day 15
Assay type: in vivo
Conditions: for AUC(0-inf): read-out: Day 1 AUC0-inf Mean (%CV)
From the text: Table 3 Summary of pharmacokinetics parameters for GDC-0853 on day 1 and day 15 (cohorts 1, 2, and 3, with 100, 200, and 400-mg GDC-0853, respectively) | column: Day 1 T1/2 (hr) Mean (%CV); Day 1 Tmax^a (hr) Median (range); Day 1 Cmax (μM) Mean (%CV); Day 1 AUC0-inf (hr•μM) Mean (%CV); Day 1 AUC0-24 (hr*μM) Mean (%CV); Day 15 Tmax^a(hr) Median (range); Day 15 Cmax (μM) Mean (%CV); Day 15 AUC0- 24 (hr•μM) Mean (%CV); Day 15 Accumulation Ratio Mean (%CV)

SMILES: C[C@H]1CN(C2COC2)CCN1c1ccc(Nc2cc(-c3ccnc(N4CCn5c(cc6c5CC(C)(C)C6)C4=O)c3CO)cn(C)c2=O)nc1 [GDC-0853]
- Day 15 Accumulation Ratio Mean (%CV) (100 mg (n = 6), cohort 1, day 15): 1.78 (58.4)
- Day 15 Accumulation Ratio Mean (%CV) (200 mg (n = 9), cohort 2, day 15): 1.44 (77.9)
- Day 15 Accumulation Ratio Mean (%CV) (400 mg (n = 9), cohort 3, day 15): 1.91 (102)
- Cmax (human, plasma, 100 mg, 100 mg (n = 6), cohort 1, day 1, plasma, read-out: Day 1 Cmax Mean (%CV)): 119 nM
- AUC(0-t) (human, plasma, 100 mg, 100 mg (n = 6), cohort 1, day 1, read-out: Day 1 AUC0-24 Mean (%CV)): 0.67 µM·h
- AUC(0-t) (human, plasma, 100 mg, 100 mg (n = 6), cohort 1, day 15, read-out: Day 15 AUC0-24 Mean (%CV)): 1.2 µM·h
- Cmax (human, plasma, 200 mg, 200 mg (n = 9), cohort 2, day 1, plasma, read-out: Day 1 Cmax Mean (%CV)): 571 nM
- AUC(0-t) (human, plasma, 200 mg, 200 mg (n = 9), cohort 2, day 1, read-out: Day 1 AUC0-24 Mean (%CV)): 2.54 µM·h
- Cmax (human, plasma, 200 mg, 200 mg (n = 9), cohort 2, day 15, plasma, read-out: Day 15 Cmax Mean (%CV)): 614 nM
- AUC(0-t) (human, plasma, 200 mg, 200 mg (n = 9), cohort 2, day 15, read-out: Day 15 AUC0-24 Mean (%CV)): 2.83 µM·h
- Cmax (human, plasma, 400 mg, 400 mg (n = 9), cohort 3, day 1, plasma, read-out: Day 1 Cmax Mean (%CV)): 1440 nM
- AUC(0-t) (human, plasma, 400 mg, 400 mg (n = 9), cohort 3, day 1, read-out: Day 1 AUC0-24 Mean (%CV)): 6.95 µM·h
- Cmax (human, plasma, 400 mg, 400 mg (n = 9), cohort 3, day 15, plasma, read-out: Day 15 Cmax Mean (%CV)): 1390 nM
- AUC(0-t) (human, plasma, 400 mg, 400 mg (n = 9), cohort 3, day 15, read-out: Day 15 AUC0-24 Mean (%CV)): 7.74 µM·h
- AUC(0-inf) (human, plasma, 100 mg (n = 6), cohort 1, day 1): 0.861 µM·h
- AUC(0-inf) (human, plasma, 200 mg (n = 9), cohort 2, day 1): 3.42 µM·h
- Tmax (human, plasma, 200 mg (n = 9), cohort 2, day 15, read-out: Day 15 Tmax Median (range)): 2.1 h
- AUC(0-inf) (human, plasma, 400 mg (n = 9), cohort 3, day 1): 7.57 µM·h
